According to patent publication US20190336498A1, “METHODS AND COMPOSITIONS FOR THE TREATMENT OF CUSHING'S SYNDROME USING 2S, 4R KETOCONAZOLE” (STRONGBRIDGE DUBLIN LIMITED, priority 2014, published 2019):

Key:
[1] = Pharmacokinetics of the enantiomers in humans after oral administration of ketoconazole; assay type: in vivo; settings: following oral administration of ketoconazole (racemic)
Description: Reduced hepatic exposure to the 2S,4R enantiomer may be of value in reducing the liver function abnormalities observed following administration of racemic ketoconazole.

[2] = Safety and tolerability in healthy volunteers and subjects with Type 2 Diabetes Mellitus; assay type: in vivo, human; settings: 200 mg to 600 mg QD for up to 14 days and 150 mg to 450 mg for up to 4 months; healthy volunteers and T2DM subjects
QTc interval = QTc interval prolongation; settings: in vivo
Description: The potential risk of protracted, drug induced prolongation of the QTc interval on the ECG is the development of an arrhythmia called torsade de pointes. […] Subjects with CS may have greater than normal QTc intervals and treatment that reduces cortisol levels may result in reductions in QTc intervals.

11-β-hydroxylase = settings: comparison in words; cited from earlier work
14-α-demethylase = biological target: T1, 14-α-demethylase (Rattus norvegicus, UniProt Q64654); settings: comparison in words; cited from earlier work
T1 sequence (Q64654 1-503): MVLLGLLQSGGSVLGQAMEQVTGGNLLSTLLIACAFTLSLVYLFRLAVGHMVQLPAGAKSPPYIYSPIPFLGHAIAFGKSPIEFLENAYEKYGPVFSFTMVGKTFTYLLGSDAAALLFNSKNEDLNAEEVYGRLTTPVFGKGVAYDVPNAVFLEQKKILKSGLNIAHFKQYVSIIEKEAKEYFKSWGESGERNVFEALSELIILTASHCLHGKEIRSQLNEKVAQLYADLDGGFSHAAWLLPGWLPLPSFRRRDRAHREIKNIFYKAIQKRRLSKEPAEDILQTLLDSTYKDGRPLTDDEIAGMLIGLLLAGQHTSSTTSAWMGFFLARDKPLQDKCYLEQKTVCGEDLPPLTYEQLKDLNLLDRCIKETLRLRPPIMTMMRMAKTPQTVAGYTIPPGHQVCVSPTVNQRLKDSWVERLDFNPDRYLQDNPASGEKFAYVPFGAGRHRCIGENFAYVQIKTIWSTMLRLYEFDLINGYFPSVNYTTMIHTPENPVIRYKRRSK

corticosterone = settings: rats; vs the other enantiomers or racemic ketoconazole; cited from earlier work
cholesterol = settings: vs the other enantiomer; cited from earlier work
C-reactive protein (CRP) = settings: clinical study; cited from earlier work
Cushing's syndrome = settings: off-label, titrated to effect; cited from earlier work

SMILES	blood concentrations of the 2S,4R enantiomer exceed those of the 2R,4S enantiomer [1]	safety and tolerability [2]	prolongation of QTc intervals (QTc interval)	IC50 toward the key enzyme in cortisol synthesis (11-α-hydroxylase) compared with the other enantiomer (11-β-hydroxylase)	IC50 toward the key enzyme in cortisol synthesis (11-β-hydroxylase) compared with the other enantiomer (11-β-hydroxylase)	IC50 toward a key enzyme in cholesterol synthesis (14-α-demethylase) compared with the other enantiomer (14-α-demethylase)	potency with respect to reducing corticosterone (corticosterone)	reduction of cholesterol (cholesterol)	reduction in C-reactive protein (CRP) levels (C-reactive protein (CRP))	therapeutic success rate in CS (Cushing's syndrome)
CC(=O)N1CCN(c2ccc(OC[C@@H]3CO[C@@](Cn4ccnc4)(c4ccc(Cl)cc4Cl)O3)cc2)CC1 (racemic) [2S,4R ketoconazole enantiomer]	approximately 3 fold	generally safe and well tolerated	capability to prolong QTc intervals in a dose (concentration) related manner	significantly lower IC50	significantly lower IC50	significantly lower IC50	more potent	appeared to reduce cholesterol more than the other enantiomer	dose response reduction	
CC(=O)N1CCN(c2ccc(OCC3COC(Cn4ccnc4)(c4ccc(Cl)cc4Cl)O3)cc2)CC1 (racemic) [racemic ketoconazole, reference compound]									no reduction	50-70%
